Patent US9271943B2, “Arsenic compound solution and albumin nanoparticle and lyophilized preparation entrapping arsenic compound prepared using same” (ZHEJIANG CHINESE MEDICAL UNIVERSITY, priority 2011, dated 2016)

Key:
[1] = system: human malignant B cell lymphoma cell line Raji cells; conditions: Raji cells 2.0×10^5/ml, 0.5˜2.0 μmol/L As2O3, 24, 48, 72 hours; cited from earlier work
[2] = system: human T lymphoma cell lines jurkat cell; assay: Mitochondrial membrane potential, JC-1 fluorescent probe; assay type: cell-based
Text: Beyotime mitochondrial membrane potential detection kit (JC-1) is used; after the cells have been labeled with the fluorescent probe, they can be observed with a fluorescence microscope using conventional settings for observing red and green fluorescence, and photographed.
Measurement principle: The JC-1 fluorescent probe is used to detect mitochondrial potential; when the mitochondrial membrane potential is high, JC-1 aggregates in the mitochondrial matrix to form a polymer, which can produce red fluorescence; when the mitochondrial membrane potential is low, JC-1 can not aggregate in the mitochondrial matrix or the aggregation decreases, in this case, JC-1 exists in monomeric form and generates green fluorescence.
100 μl of suspension cultured cell liquid is centrifugalized and washed to obtain a sample. The sample is made into smears and observed by fluorescence microscopy, and three pictures are taken respectively by using conventional filter, red fluorescence, and green fluorescence sets in the same field of view. […]

[3] = system: human B lymphoma cell line Daudi cells; assay: Trypan blue count of survival and dead Daudi cells; assay type: cell-based; conditions: for Death rate / the number of survival cells: Daudi cells
Description: (§1) Human lymphoma cell line cells are cultured in RPMI 1640 culture medium containing 10% new-born calf serum, placed in a 5% CO2 incubator, and cultured at 37° C. with saturated humidity. The medium is changed every 1-2 days. When the cells grow well, the drug is applied to the cells.
The growing well human B lymphoma cell line Daudi cells are cultured in a 24-well plate; each well is inoculated with 1 ml of the cell culture with a cell density of 1.5χ10^5/ml, and they are divided into experimental and control groups. […], the cells in each group are treated with the arsenic compound solution with respective concentration in terms of As2O3 added, for example, the cells in 0.8 μg/ml As2O3 group are treated with 0.8 μg/ml arsenic compound solution, and the arsenic compound solutions with different concentration are prepared by the following method: the arsenic compound solution obtained in Example 1 is first diluted with deionized water to 80 μg/ml, and then diluted to the desired concentration with 1640 culture fluid to obtain arsenic compound solutions with different concentration. The control group is added with a equal volume of culture fluid. The 24-well plate is placed in a 5% CO2 incubator, the cells are cultured at 37° C. and saturated humidity for a predetermined time, and then detected correspondingly. The cell suspensions are stained by physiological saline solution of 0.3% trypan blue for counting survival, dead cells; and the results are shown in Table 2: […]

[4] = system: human T-cell lymphoma cell line jurkat cells; assay: Trypan blue count of survival and dead jurkat cells; assay type: cell-based; conditions: for effect on proliferation / cell growth of jurkat cells: 0.2-0.8 μg/ml, 24, 48, 72 h; for Death rate / the number of survival cells / total number of the cells: jurkat cells
Description: as §1
The human T-cell lymphoma cell line jurkat cells in exponential growth phase are inoculated into a 24-well plate and cultured; 1 ml of jurkat cells with a cell density of 2χ10^5/ml are inoculated into each well, and the 24-well plate is placed in a 37° C., 5% CO2 incubator. Jurkat cells are treated with the arsenic compound solutions with different final As2O3 concentrations of 0, 0.2, 0.4, 0.8 μg/ml for 24, 48, 72 hours, and the arsenic compound solutions with different final As2O3 concentrations are prepared as follows: the arsenic compound solution obtained in Example 1 is first diluted with deionized water to 80 μg/ml, and then diluted to the desired concentration with 1640 culture fluid. The treated cell suspensions are stained with physiological saline solution of 0.3% trypan blue for determining survival, dead cell count, and the results shown in Table 3: […]

[5] = system: human T cell lymphoma cell line jurkat cells; assay: Detection of apoptotic bodies by light microscopy; assay type: cell-based; conditions: 0.8 μg/ml As2O3, 24 h, FIG. 12B
Description: Human B lymphoma cell line Daudi cells and human T lymphoma cell line jurkat cells in the control group and As2O3-treated group ([…]) which have been cultured for 24 h are collected to prepare smears, Wright-Giemsa stained, and observed under a light microscope to determine the morphological changes of cells.
1) apoptotic bodies: human B lymphoma cell line Daudi cells and human T-cell lymphoma cell line jurkat cells in the control group and in the As2O3-treated group which have been cultured or treated for 24 h are collected to prepare smears, subjected to the detection of apoptotic bodies and photographed. The results are shown in FIGS. 12A and 12B; FIG. 12A is a light microscopy image of apoptotic bodies of human T cell lymphoma cell line jurkat cells in the control group; and FIG. 12B is a light microscopy image of apoptotic bodies of human T cell lymphoma cell line jurkat cells treated with […] As2O3, and the […] As2O3 is prepared as follows: the arsenic compound solution obtained in Example 1 is first diluted with deionized water to 80 μg/ml, and then diluted to […] with 1640 culture fluid.

[6] = system: human T-cell lymphoma cell line jurkat cells; conditions: jurkat cells 2.0×10^5/ml, As2O3 0.5, 1.0, 2.0, 4.0 μmol/L; cited from earlier work
[7] = system: human T-cell lymphoma cell line jurkat cells; assay: Cell apoptosis by AnnexinV/PI double staining flow cytometry; assay type: cell-based; conditions: for Apoptotic rate / Early apoptotic rate / Early apoptotic rate + Apoptotic rate / Survival rate: jurkat cells, treated for 44 hours
Description: The human T-cell lymphoma cell line jurkat cells in exponential growth phase are inoculated into a 6-well plate and cultured; 3 ml of jurkat cells with a cell density of 2χ10^5/ml are inoculated into each well, and the 6-well plate is placed in a 37° C., 5% CO2 incubator. After being cultured for 4 hours, […], and the arsenic compound solutions with different final As2O3 concentrations are prepared as follows: the arsenic compound solution obtained in Example 1 is first diluted with deionized water to 80 μg/ml, and then diluted to the desired concentration with 1640 culture fluid. The control group is treated with an equivalent volume of 1640 culture fluid. After being treated for 44 hours, jurkat cells in the experimental and control groups with a cell density of 1χ10^6/ml are collected, and apoptosis is studied by AnnexinV/PI double staining flow cytometry.)
The cells in the experimental and control groups with a density of 1χ10^6 jurkat cells/ml are respectively collected, washed twice with PBS, and subjected to centrifugation at 1000 r/min for 5 min, and the supernatant is discarded. Each 100 μl of the cell suspension is mixed with 5 μL Annexin-V, and then mixed with 2 μL of propidium iodide (PI). The mixtures are incubated at room temperature and dark conditions for 15 min, then mixed with 400 μl of 1χAnnexin-V binding buffer after incubation, and placed in an ice water bath. Meanwhile, the flow cytometry instrument is subjected to regular correct, besides, the normal cells in the control group are collected to prepare positive control and negative control for dead cells and survival apoptotic cells to correct the instrument, so that the instrument has more precise control threshold for different characteristic samples. Then, the stained cells were detected by flow cytometry; and similar results are obtained by experiment repeated: […]

arsenic trioxide [As2O3]
effect on cell growth (number of active cells) [1]: inhibited cell growth in a dose dependent manner | number of the cells and red fluorescence intensity of JC-1 in the mitochondria ([2]; 0.4 μg/m As2O3 treated group compared with control group): have decreased significantly | number of the cells and red fluorescence intensity of JC-1 in the cells ([2]; 0.8 As2O3 treated group compared with 0.4 μg/m group): have also decreased significantly | effect on cell viability and growth of Daudi cells ([3]; 0.1-0.8 μg/ml, 20 h and 68 h, dose dependence): significantly reduce the cell viability | Death rate ([3]; As2O3 0.1 μg/ml, 20 h): 33% | the number of survival cells ([3]; As2O3 0.1 μg/ml, 20 h): 1.40 10^5/ml | Death rate ([3]; As2O3 0.1 μg/ml, 68 h): 66% | the number of survival cells ([3]; As2O3 0.1 μg/ml, 68 h): 1.24 10^5/ml | Death rate ([3]; As2O3 0.2 μg/ml, 20 h): 44% | the number of survival cells ([3]; As2O3 0.2 μg/ml, 20 h): 1.27 10^5/ml | Death rate ([3]; As2O3 0.2 μg/ml, 68 h): 75% | the number of survival cells ([3]; As2O3 0.2 μg/ml, 68 h): 0.77 10^5/ml | Death rate ([3]; As2O3 0.4 μg/ml, 20 h): 56% | the number of survival cells ([3]; As2O3 0.4 μg/ml, 20 h): 0.99 10^5/ml | Death rate ([3]; As2O3 0.4 μg/ml, 68 h): 88% | the number of survival cells ([3]; As2O3 0.4 μg/ml, 68 h): 0.30 10^5/ml | Death rate ([3]; As2O3 0.8 μg/ml, 20 h): 68% | the number of survival cells ([3]; As2O3 0.8 μg/ml, 20 h): 0.58 10^5/ml | Death rate ([3]; As2O3 0.8 μg/ml, 68 h): 98% | the number of survival cells ([3]; As2O3 0.8 μg/ml, 68 h): 0.06 10^5/ml | sensitivity of Daudi cells to As2O3-induced cell death relative to jurkat cells ([3]; comparison of Table 2 with Table 3): more sensitive | effect on proliferation / cell growth of jurkat cells [4]: can inhibit cell growth | effect on proliferation / cell growth of jurkat cells ([4]; listed as arsenic compound): significant inhibitory effect | Death rate ([4]; As2O3 0.2 μg/ml, 24 h): 5.2% | the number of survival cells ([4]; As2O3 0.2 μg/ml, 24 h): 7.56 10^5/ml | total number of the cells ([4]; As2O3 0.2 μg/ml, 24 h): 7.98 10^5/ml | Death rate ([4]; As2O3 0.2 μg/ml, 48 h): 16% | the number of survival cells ([4]; As2O3 0.2 μg/ml, 48 h): 10.29 10^5/ml | total number of the cells ([4]; As2O3 0.2 μg/ml, 48 h): 12.18 10^5/ml | Death rate ([4]; As2O3 0.2 μg/ml, 72 h): 46.1% | the number of survival cells ([4]; As2O3 0.2 μg/ml, 72 h): 4.95 10^5/ml | total number of the cells ([4]; As2O3 0.2 μg/ml, 72 h): 9.19 10^5/ml | Death rate ([4]; As2O3 0.4 μg/ml, 24 h): 25.9% | the number of survival cells ([4]; As2O3 0.4 μg/ml, 24 h): 4.87 10^5/ml | total number of the cells ([4]; As2O3 0.4 μg/ml, 24 h): 6.57 10^5/ml | Death rate ([4]; As2O3 0.4 μg/ml, 48 h): 34% | the number of survival cells ([4]; As2O3 0.4 μg/ml, 48 h): 5.12 10^5/ml | total number of the cells ([4]; As2O3 0.4 μg/ml, 48 h): 7.73 10^5/ml | Death rate ([4]; As2O3 0.4 μg/ml, 72 h): 50.9% | the number of survival cells ([4]; As2O3 0.4 μg/ml, 72 h): 3.66 10^5/ml | total number of the cells ([4]; As2O3 0.4 μg/ml, 72 h): 7.45 10^5/ml | Death rate ([4]; As2O3 0.8 μg/ml, 24 h): 47.3% | the number of survival cells ([4]; As2O3 0.8 μg/ml, 24 h): 2.92 10^5/ml | total number of the cells ([4]; As2O3 0.8 μg/ml, 24 h): 5.53 10^5/ml | Death rate ([4]; As2O3 0.8 μg/ml, 48 h): 55% | the number of survival cells ([4]; As2O3 0.8 μg/ml, 48 h): 2.5 10^5/ml | total number of the cells ([4]; As2O3 0.8 μg/ml, 48 h): 5.61 10^5/ml | Death rate ([4]; As2O3 0.8 μg/ml, 72 h): 69.7% | the number of survival cells ([4]; As2O3 0.8 μg/ml, 72 h): 1.84 10^5/ml | total number of the cells ([4]; As2O3 0.8 μg/ml, 72 h): 6.08 10^5/ml | morphological changes, apoptotic bodies [5]: nuclear fragmentation, cellular debris and apoptotic bodies appear | effect on cell growth [6]: did not inhibit cell growth | relation of jurkat cell apoptotic rate to concentration ([7]; R=0.997 (P<0.01), dose-dependent): positively correlated with the concentration | Apoptotic rate ([7]; As2O3 0.2 μg/ml): 0.7% | Early apoptotic rate ([7]; As2O3 0.2 μg/ml): 6.5% | Early apoptotic rate + Apoptotic rate ([7]; As2O3 0.2 μg/ml): 7.2% | Survival rate ([7]; As2O3 0.2 μg/ml): 92.8% | Apoptotic rate ([7]; As2O3 0.4 μg/ml): 1.4% | Early apoptotic rate ([7]; As2O3 0.4 μg/ml): 14.1% | Early apoptotic rate + Apoptotic rate ([7]; As2O3 0.4 μg/ml): 15.5% | Survival rate ([7]; As2O3 0.4 μg/ml): 84.5% | Apoptotic rate ([7]; As2O3 0.8 μg/ml): 5.0% | Early apoptotic rate ([7]; As2O3 0.8 μg/ml): 26.1% | Early apoptotic rate + Apoptotic rate ([7]; As2O3 0.8 μg/ml): 31.0% | Survival rate ([7]; As2O3 0.8 μg/ml): 69.0% | Apoptotic rate ([7]; As2O3 1.6 μg/ml): 15.8% | Early apoptotic rate ([7]; As2O3 1.6 μg/ml): 50.8% | Early apoptotic rate + Apoptotic rate ([7]; As2O3 1.6 μg/ml): 66.6% | Survival rate ([7]; As2O3 1.6 μg/ml): 33.4%
